The source of these data is ChEMBL document CHEMBL1127007, “Quinazolinones 2: QSAR and in vivo characterization of AT1 selective AII antagonists” (Bioorg Med Chem Lett, 1993).

Bounds are passed on as bounds.

Assay [1] concerns the target T1, Type-2 angiotensin II receptor (Homo sapiens) (UniProt P50052).
T1 sequence (whole entry): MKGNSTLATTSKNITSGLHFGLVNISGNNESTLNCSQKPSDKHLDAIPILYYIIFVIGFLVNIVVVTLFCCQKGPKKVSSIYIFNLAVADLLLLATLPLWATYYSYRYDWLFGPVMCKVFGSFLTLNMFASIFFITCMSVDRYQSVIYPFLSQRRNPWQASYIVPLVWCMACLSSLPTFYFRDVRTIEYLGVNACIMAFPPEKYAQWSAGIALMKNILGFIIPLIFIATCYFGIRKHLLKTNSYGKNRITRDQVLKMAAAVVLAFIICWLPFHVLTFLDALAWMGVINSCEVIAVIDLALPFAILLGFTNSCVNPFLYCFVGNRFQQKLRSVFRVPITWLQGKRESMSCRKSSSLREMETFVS
In words: In vitro antagonist activity against the Angiotensin II (type 2) receptor. The class given is functional.

Assay [2] has as its target Angiotensin II receptor (Rattus norvegicus) (UniProt P29089+P25095+P35351). The assay can be described thus: Duration of action as time for pressor response to fall below 30% for a single bolus by intravenous dose. Format: functional, organism-based.
Assay [3] has as its system Rattus norvegicus. The assay can be described thus: In vivo for inhibition of the AII pressor response in normotensive rat at dose 0.3 mg/kg(iv) after 0.8 hour. The class given is functional.
In assay [4] the test system is Rattus norvegicus. The assay can be described thus: Compound was evaluated in vivo for inhibition of the AII pressor response in normotensive rat at dose 1 mg/kg, iv after 0.9 hour. Format: functional.
Assay [5] has as its target T2, Type-1 angiotensin II receptor (Oryctolagus cuniculus, UniProt P34976).
T2 sequence (P34976 whole entry): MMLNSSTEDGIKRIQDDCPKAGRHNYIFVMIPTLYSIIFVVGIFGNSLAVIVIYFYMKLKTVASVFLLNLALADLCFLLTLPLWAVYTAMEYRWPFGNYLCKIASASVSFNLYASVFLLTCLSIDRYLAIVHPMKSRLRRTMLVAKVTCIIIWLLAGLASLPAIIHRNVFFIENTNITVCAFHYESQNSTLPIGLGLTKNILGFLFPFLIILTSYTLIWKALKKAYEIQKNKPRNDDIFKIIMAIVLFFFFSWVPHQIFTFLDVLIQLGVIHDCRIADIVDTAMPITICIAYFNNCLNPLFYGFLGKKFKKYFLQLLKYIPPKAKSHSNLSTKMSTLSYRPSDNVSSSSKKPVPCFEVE
In words: Displacement of [125I]Sar1-Ile8-AII (without BSA) from type 1 Angiotensin II receptor of rabbit aorta. The class given is tissue-based. (In general: Loss of bound radioactivity is the signal in a displacement assay; it reports binding, not function.)

Assay [6] addresses T2, Type-1 angiotensin II receptor. The assay can be described thus: Ability to displace [125I]Sar1-Ile8-AII from angiotensin II receptor, type 1 in rabbit aorta in presence of 0.2% bovine serum albumin (BSA) was determined in vitro. The class given is tissue-based.
The subject of assay [7] is Rattus norvegicus. In words: The duration of action is expressed as the time for the % inhibition of pressor response to fall below 30% for a single bolus of the drug administered perorally. The class given is functional.
Assay [8] has as its system Rattus norvegicus. In words: Compound was evaluated in vivo for inhibition of the AII pressor response in normotensive rat at dose 0.3 mg/kg, iv after 3.5 hr. Format: functional.
The subject of assay [9] is Rattus norvegicus. In words: Compound was evaluated in vivo for inhibition of the AII pressor response in normotensive rat at dose 0.3 mg/kg, iv after 6 hours. The class given is functional.
Assay [10] has as its system Rattus norvegicus. The assay can be described thus: Compound was evaluated in vivo for inhibition of the AII pressor response in normotensive rat at dose 0.3 mg/kg, po. Format: functional.
Assay [11] concerns Rattus norvegicus. In words: Compound was evaluated in vivo for inhibition of the AII pressor response in normotensive rat at dose 10 mg/kg, iv after 2.2 hour. The class given is functional.
For assay [12], the system named is Rattus norvegicus. The assay can be described thus: Compound was evaluated in vivo for inhibition of the AII pressor response in normotensive rat at dose 3 mg/kg, iv after 0.9 hour. Format: functional.
In assay [13] the test system is Rattus norvegicus. The assay can be described thus: Compound was evaluated in vivo for inhibition of the AII pressor response in normotensive rat at dose 3 mg/kg, p.o. after 1.1 hour. The note with it: route oral. The class given is functional.
Assay [14] deals with Rattus norvegicus. In words: Compound was evaluated in vivo for inhibition of the AII pressor response in normotensive rat at dose 1 mg/kg, iv after 0.3 hour. Format: functional.
Assay [15] concerns Rattus norvegicus. In words: Compound was evaluated in vivo for inhibition of the AII pressor response in normotensive rat at dose 1 mg/kg, iv after 0.1 hour. Format: functional.
For assay [16], the system named is Rattus norvegicus. In words: The duration of action is expressed as the time for the % inhibition of pressor response to fall below 30% for a single bolus of the drug administered intravenously. Format: functional.
Assay [17] relates to Rattus norvegicus. The assay can be described thus: Compound was evaluated in vivo for inhibition of the AII pressor response in normotensive rat at dose 1 mg/kg, iv after 0.2 hour. Format: functional.

Molecule `CCCCc1nc2ccc(N(C)C(=O)N(C)C(C)C)cc2c(=O)n1Cc1ccc(-c2ccccc2-c2nn[nH]n2)cc1` showed an Activity in assay [1] above 1000 nM. In addition, the Duration in [2] was found to be 0.8 h. In the assay on Rattus norvegicus [3], 0.3 mg/kg produced 70% inhibition in vivo.

In turn, `CCCCc1nc2ccc(NC(C)=O)cc2c(=O)n1Cc1ccc(-c2ccccc2-c2nn[nH]n2)cc1` gave an Activity in assay [1] above 1000 nM. The Duration in assay [2] is 0.9 h. In addition, 1 mg/kg produced 97% inhibition in vivo with Rattus norvegicus [4].

In assay [1], `CCCCc1nc2ccc(NC(=O)NC(C)C)cc2c(=O)n1Cc1ccc(-c2ccccc2-c2nn[nH]n2)cc1` displayed an Activity above 1000 nM. Further, the IC50 came to 0.5 nM in assay [5] and 0.75 nM in [6]. Besides, the Duration in assay [2] was above 6 h; in the assay with Rattus norvegicus [7], 0 h. Besides, the inhibition in vivo at 0.3 mg/kg in the assay on Rattus norvegicus [8] was found to be 86%; with Rattus norvegicus [9], 86%; with Rattus norvegicus [10], 0%.

Consider `CCCCc1nc2ccccc2c(=O)n1Cc1ccc(-c2ccccc2-c2nn[nH]n2)cc1`, for which the Activity in assay [1] is above 1000 nM. Also, the IC50 in assay [6] came to 6 nM. The Duration in the assay with Rattus norvegicus [7] was found to be 1.1 h. In the assay on Rattus norvegicus [11], this molecule yielded an inhibition in vivo at 10 mg/kg of 98%. Further, the inhibition in vivo at 3 mg/kg worked out at 70% in the assay with Rattus norvegicus [12] and 54% with Rattus norvegicus [13]. In addition, in the assay on Rattus norvegicus [14], the inhibition in vivo at 1 mg/kg worked out at 40%.

As for `CCCCc1nc2ccc(SC)cc2c(=O)n1Cc1ccc(-c2ccccc2-c2nn[nH]n2)cc1`, in assay [1], the Activity is above 1000 nM. In [6], the IC50 is 7 nM. Also, in [2], the Duration was found to be 0.1 h. The molecule further displayed an inhibition in vivo at 1 mg/kg in the assay with Rattus norvegicus [15] of 44%.

For `CCCCc1nc2ccc(OC)cc2c(=O)n1Cc1ccc(-c2ccccc2-c2nn[nH]n2)cc1`, in assay [1], the Activity was above 1000 nM. Further, the Duration in the assay with Rattus norvegicus [16] is 0.2 h. Further, testing at 1 mg/kg in the assay on Rattus norvegicus [17] gave an inhibition in vivo of 49%.

In general, inhibition in vivo refers to the share of the control response that was lost under treatment. High values mean a strong effect, low ones a weak effect. Broadly, the IC50 is the concentration at which inhibition is half-maximal.
